# Experimental data taken from patent publication US20020006900A1, “Colon cancer KH-1 and N3 antigens” (priority 1997, published 2002).
# Key:
# [1] = tested on: Monoclonal Antibody BR 96 (Le^y related); assay: Dot-blot immune stain of carbohydrates with monoclonal antibody BR 96; type: binding; conditions: for Binding with BR 96 (Le^y related) by dot-blot: 0.5 μg antigen spotted, BR 96 diluted 1:500
# Description: 0.5 μg KH-1 ceramide and other Ley antigen and unrelated antigens were spotted on nitrocellulose strips. Dot blot Immune staining was performed monoclonal antibody BR 96 after blocked with 6% bovine serum albumin in PBS for 1 h and incubated with antibody BR 96 (diluted 1:500 in PBS) overnight at room temperature. The strips were washed with PBS containing 0.05% Tween 20 and incubated with anti-mouse IgG antibody conjugated with horseradish peroxidase at 1:200 dilution for 3 h at room temperature. Then the strips were washed with PBS-0.05% Tween 20 and developed with 4-chloro-1-naphtol-H2O2.
# [2] = tested on: Monoclonal Antibody F12 (FucosylGM1); assay: Dot-blot immune stain of carbohydrates with monoclonal antibody F12; type: binding; conditions: 0.5 μg antigen spotted
Substance,Binding with BR 96 (Le^y related) by dot-blot [1],Binding with F12 (FucosylGM1) by dot-blot [2],Reaction with BR 96 antibody by dot-blot ([1]; compared with other Le^y related antigens)
Globo H ceramide [reference compound],negative,negative,–
KH-1 antigen [KH-1 ceramide],very strong,negative,reacted very strongly
